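All cell lines were grown in 96-well plates and treated with compound for 48 hours. GI50 marks 50% less growth. TGI denotes the concentration required for complete inhibition of growth.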 Where only a bound is given, the exact number is not on record here.

Among the test systems are TK-10 renal; OVCAR-4 ovarian; LOX IMVI melanoma; M14 melanoma; HCT-15 colon; BT-549 breast; NCI-H23 lung; MALME-3M melanoma; SK-MEL-5 melanoma; HCC-2998 colon.
Holding throughout (assay): NCI anticancer screen, dose series, 48 h

Consider `Oc1ccc2ccccc2c1C=NCCCN=Cc1c(O)ccc2ccccc12`, for which the GI50 is 24.4 µM in the assay on TK-10 renal; 35.9 µM with OVCAR-4 ovarian; 6.89 µM in the assay on LOX IMVI melanoma; 7.94 µM with M14 melanoma; 5.13 µM in the assay with HCT-15 colon; 18.5 µM in the assay on BT-549 breast. Besides, the GI50 is 3.13 µM with NCI-H23 lung, 6.96 µM with MALME-3M melanoma and 4.61 µM in the assay with SK-MEL-5 melanoma. For the same molecule, the TGI was greater than 100 µM in the assay with TK-10 renal; greater than 100 µM with OVCAR-4 ovarian; 19.4 µM in the assay with LOX IMVI melanoma; 23.1 µM with M14 melanoma; 28.5 µM with HCT-15 colon; 47.8 µM with BT-549 breast. The TGI in the assay with NCI-H23 lung turned out to be 13 µM; with MALME-3M melanoma it was 29.7 µM; in the assay with SK-MEL-5 melanoma it was 16 µM.

As to `Cc1ccc(Nc2nc(NCCO)c3ccccc3n2)cc1C`, the GI50 in the assay with TK-10 renal is 11.1 µM; with HCC-2998 colon it was 2.44 µM; in the assay on OVCAR-4 ovarian, 3.14 µM; in the assay on LOX IMVI melanoma, 3.55 µM; in the assay on HCT-15 colon it was 3.26 µM; with BT-549 breast it was 11.5 µM. The GI50 in the assay on NCI-H23 lung was 9.74 µM; with MALME-3M melanoma, 1.85 µM; in the assay with SK-MEL-5 melanoma, 2.78 µM. The TGI stood at 23.3 µM with TK-10 renal; 5.96 µM in the assay with HCC-2998 colon; 15.6 µM in the assay with OVCAR-4 ovarian; 12.4 µM in the assay on LOX IMVI melanoma; 13.3 µM in the assay with HCT-15 colon; 23.6 µM with BT-549 breast. Further, the figures for the TGI in the assay with NCI-H23 lung, with MALME-3M melanoma and with SK-MEL-5 melanoma were 22.5 µM, 3.77 µM and 10.5 µM, respectively.

On to `Cn1c(C(N)=O)cc2c1-c1nc(Nc3ccccc3)ncc1CCC2`, for which the GI50 in the assay on TK-10 renal was 3.97 µM; with HCC-2998 colon it was 10.3 µM; in the assay with LOX IMVI melanoma it was 4.86 µM; with M14 melanoma, 4.73 µM; in the assay with HCT-15 colon, 3.4 µM; in the assay with BT-549 breast it was 3.29 µM. In addition, the GI50 in the assay on NCI-H23 lung is 4.91 µM; in the assay on MALME-3M melanoma, 7.63 µM; in the assay with SK-MEL-5 melanoma, 11.4 µM. In addition, the TGI was 52.3 µM in the assay on TK-10 renal; 33.3 µM with HCC-2998 colon; 24.8 µM in the assay with LOX IMVI melanoma; 41.1 µM in the assay with M14 melanoma; 28.6 µM with HCT-15 colon; 27.8 µM in the assay with BT-549 breast. In addition, the TGI came out at 32.9 µM in the assay on NCI-H23 lung, 57 µM in the assay with MALME-3M melanoma and 25.8 µM with SK-MEL-5 melanoma.

For `CC(O)C1OC(O)C2OC(C)(C)OC12` (configuration not stated), the TGI in the assay with TK-10 renal, in the assay on OVCAR-4 ovarian, in the assay with LOX IMVI melanoma, in the assay with M14 melanoma, in the assay with HCT-15 colon and in the assay on BT-549 breast was greater than 100 µM throughout. The TGI with NCI-H23 lung and with SK-MEL-5 melanoma was greater than 100 µM in each case.

As to `CC1=C(C)C(=O)c2c(c(C(=O)c3ccccc3)c3nc4ccccc4n3c2C)C1=O`, the GI50 with TK-10 renal was 59.5 µM; in the assay on HCC-2998 colon it was greater than 100 µM; in the assay with OVCAR-4 ovarian it was greater than 100 µM; with LOX IMVI melanoma, 69.9 µM; in the assay with M14 melanoma, greater than 100 µM; in the assay with HCT-15 colon it was greater than 100 µM. The GI50 in the assay with BT-549 breast was 54.7 µM; in the assay with NCI-H23 lung it was 46.5 µM; with SK-MEL-5 melanoma, greater than 100 µM. For the same molecule, the TGI in the assay on TK-10 renal, in the assay on HCC-2998 colon, with OVCAR-4 ovarian, with LOX IMVI melanoma, in the assay with M14 melanoma and in the assay on HCT-15 colon was greater than 100 µM throughout. The TGI in the assay with BT-549 breast, in the assay on NCI-H23 lung and in the assay on SK-MEL-5 melanoma was greater than 100 µM each time.

In the case of `C=C1C(=O)O[C@@H]2C[C@@H]1CC[C@]1(C)O[C@H]1CC[C@@]1(C)O[C@@H]1CC[C@@]2(C)O`, the GI50 in the assay on TK-10 renal was 39.4 µM; in the assay with HCC-2998 colon it was 6.49 µM; in the assay with OVCAR-4 ovarian, 13.7 µM; with LOX IMVI melanoma it was 28.7 µM; in the assay with M14 melanoma, 34.2 µM; in the assay on HCT-15 colon it was 29.2 µM. The GI50 is 31.9 µM in the assay with BT-549 breast, 22.3 µM in the assay with MALME-3M melanoma and 14 µM in the assay with SK-MEL-5 melanoma. Also, the TGI was greater than 100 µM in the assay with TK-10 renal; 24.4 µM in the assay with HCC-2998 colon; 33.1 µM in the assay on OVCAR-4 ovarian; 80.8 µM in the assay on LOX IMVI melanoma; greater than 100 µM with M14 melanoma; greater than 100 µM in the assay with HCT-15 colon. The TGI in the assay on BT-549 breast amounted to 89.5 µM; in the assay on MALME-3M melanoma it was 71.2 µM; with SK-MEL-5 melanoma, 34.8 µM.

In the case of `OCCN(CCO)N=Nc1ccc(-c2nc3ccccc3[nH]2)cc1`, the GI50 in the assay with TK-10 renal was 36.1 µM; in the assay with OVCAR-4 ovarian, 15.9 µM; with LOX IMVI melanoma it was 12.5 µM; in the assay on M14 melanoma it was 46.4 µM; with HCT-15 colon, 21.8 µM; in the assay on BT-549 breast, 42.7 µM. Further, in the assay on SK-MEL-5 melanoma, the GI50 is 20.2 µM. Moreover, the TGI in the assay with TK-10 renal is greater than 100 µM; with OVCAR-4 ovarian, 36.1 µM; in the assay with LOX IMVI melanoma, 25.5 µM; in the assay on M14 melanoma, greater than 100 µM; with HCT-15 colon it was 51.2 µM; with BT-549 breast, 97.8 µM. Besides, in the assay on SK-MEL-5 melanoma, the TGI was 53.4 µM.

In the case of `CCCCCCCCCCCCN1C(C)=CS/C1=C\C=C\c1scc(C)[n+]1CCCCCCCCCCCC`, the GI50 is 0.934 µM in the assay on TK-10 renal; 2.11 µM with HCC-2998 colon; 1.43 µM with OVCAR-4 ovarian; 1.79 µM with LOX IMVI melanoma; 1.34 µM in the assay with M14 melanoma; 2.32 µM with HCT-15 colon. Also, the results for the GI50 with BT-549 breast and in the assay with NCI-H23 lung were 1.54 µM and 0.999 µM, respectively. Moreover, the TGI was 3.9 µM in the assay on TK-10 renal; 11 µM in the assay on HCC-2998 colon; 13.2 µM with OVCAR-4 ovarian; 5.96 µM in the assay with LOX IMVI melanoma; 4.61 µM in the assay with M14 melanoma; 21.6 µM in the assay on HCT-15 colon. For the same molecule, the TGI is 7.17 µM with BT-549 breast and 4.99 µM in the assay with NCI-H23 lung.

In the case of `CCCN1C(=O)C/C(=C\C(C)=O)Nc2ccccc21`, the TGI with TK-10 renal, in the assay on HCC-2998 colon, with OVCAR-4 ovarian, in the assay with LOX IMVI melanoma, in the assay on M14 melanoma and in the assay on HCT-15 colon was greater than 100 µM throughout. The TGI in the assay on NCI-H23 lung, in the assay on MALME-3M melanoma and in the assay with SK-MEL-5 melanoma was greater than 100 µM in each case.

The values are drawn from PubChem BioAssay (NCI).
